Results on seven compounds are retold here after ChEMBL document CHEMBL5338790, “Discovery of Subcellular-Targeted Aza-BODIPY Photosensitizers for Efficient Photodynamic Antitumor Therapy” (J Med Chem, 2023).

As usually defined, the IC50 is the concentration that gives 50% inhibition.

Series [1] can be described thus: Cytotoxicity against mouse B16-F10 cells assessed as inhibition of cell viability under dark condition incubated for 27 hrs by CCK8 assay. The class given is toxicity, cell-based. On the technique in general: Tetrazolium dyes change colour on reduction, which living cells bring about.
Series [2] is described as follows: Toxicity in Balb/C nu/nu mouse xenografted with human HeLa cells assessed as change in liver histology at 2.5 umol/kg, iv with photo-irradiation at 30 J/cm2 after 1 hr of compound administration measured after 24 days by H and E staining based analysis. It is filed as organism-based. The settings on record: in vivo, 576 h, dose 2.5 µmol/kg, time 24 day.
Series [3] can be described thus: Toxicity in Balb/C nu/nu mouse xenografted with human HeLa cells assessed as change in spleen histology at 2.5 umol/kg, iv with photo-irradiation at 30 J/cm2 after 1 hr of compound administration measured after 24 days by H and E staining based analysis. The class given is organism-based. The settings on record: in vivo, 576 h, dose 2.5 µmol/kg, time 24 day. A general note: In xenograft studies the graft and the host belong to different species.

Series [4] is described as follows: Toxicity in Balb/C nu/nu mouse xenografted with human HeLa cells assessed as change in lung histology at 2.5 umol/kg, iv with photo-irradiation at 30 J/cm2 after 1 hr of compound administration measured after 24 days by H and E staining based analysis. The class given is organism-based. The conditions noted are these: in vivo, 576 h, dose 2.5 µmol/kg, time 24 day.

Series [5] relates to HUVEC. In words: Photodynamic cytotoxicity against HUVEC cells assessed as inhibition of cell viability incubated for 3 hrs followed by photo-irradiation at 54 J/cm2 measured after 24 hrs by CCK8 assay. It is filed as functional, cell-based. The settings on record: Homo sapiens, light or radiation study.
Series [6] can be described thus: Toxicity in Balb/C nu/nu mouse xenografted with human HeLa cells assessed as drug tolerance at 2.5 umol/kg, iv with photo-irradiation at 30 J/cm2 after 1 hr of compound administration measured for 24 days. It is filed as organism-based. The settings on record: in vivo, 576 h, dose 2.5 µmol/kg, time 24 day.
Series [7] deals with B16-F10. In words: Photodynamic cytotoxicity against mouse B16-F10 cells assessed as inhibition of cell viability incubated for 3 hrs followed by photo-irradiation at 54 J/cm2 measured after 24 hrs by CCK8 assay. The class given is functional, cell-based. The settings on record: B16-F10, light or radiation study.
Series [8] can be described thus: Toxicity in Balb/C nu/nu mouse xenografted with human HeLa cells assessed as increase in body weight at 2.5 umol/kg, iv with photo-irradiation at 30 J/cm2 after 1 hr of compound administration measured for 24 days. The class given is organism-based. The conditions noted are these: in vivo, 576 h, dose 2.5 µmol/kg, time 24 day.
Series [9] deals with HepG2. In words: Photodynamic cytotoxicity against human HepG2 cells assessed as inhibition of cell viability incubated for 3 hrs followed by photo-irradiation at 54 J/cm2 measured after 24 hrs by CCK8 assay. It is filed as functional, cell-based. The settings on record: HepG2, light or radiation study.
The test system of series [10] is HeLa. In words: Antitumor activity against human HeLa cells xenografted in Balb/C nu/nu mouse assessed as tumor growth inhibition at 2.5 umol/kg, iv with photo-irradiation at 30 J/cm2 after 1 hr of compound administration measured for 24 days. The class given is functional, organism-based. The conditions noted are these: dose 2.5 µmol/kg, time 24.0 day.
The test system of series [11] is HeLa. In words: Photodynamic cytotoxicity against human HeLa cells assessed as inhibition of cell viability incubated for 3 hrs followed by photo-irradiation at 54 J/cm2 measured after 24 hrs by CCK8 assay. It is filed as functional, cell-based. The conditions noted are these: light or radiation study.
Series [12] can be described thus: Cytotoxicity against HUVEC cells assessed as inhibition of cell viability under dark condition incubated for 27 hrs by CCK8 assay. The class given is toxicity, cell-based. The settings on record: human.
Series [13] can be described thus: Toxicity in Balb/C nu/nu mouse xenografted with human HeLa cells assessed as change in heart histology at 2.5 umol/kg, iv with photo-irradiation at 30 J/cm2 after 1 hr of compound administration measured after 24 days by H and E staining based analysis. The class given is organism-based. The conditions noted are these: in vivo, 576 h, dose 2.5 µmol/kg, time 24 day.

Series [14] can be described thus: Cytotoxicity against human HeLa cells assessed as inhibition of cell viability under dark condition incubated for 27 hrs by CCK8 assay. The class given is toxicity, cell-based.
A short description of series [15]: Cytotoxicity against human HepG2 cells assessed as inhibition of cell viability under dark condition incubated for 27 hrs by CCK8 assay. It is filed as toxicity, cell-based.
A short description of series [16]: Toxicity in Balb/C nu/nu mouse xenografted with human HeLa cells assessed as change in kidney histology at 2.5 umol/kg, iv with photo-irradiation at 30 J/cm2 after 1 hr of compound administration measured after 24 days by H and E staining based analysis. The conditions noted are these: in vivo, 576 h, dose 2.5 µmol/kg, time 24 day. It is filed as organism-based.

Series [17] can be described thus: Drug uptake in human HeLa cells at 5 uM by confocal scanning microscopy. The settings on record: 3 h, TDE = time-dependent effect. It is filed as ADME, cell-based.
Series [18] relates to HeLa. In words: Induction of ROS production in human HeLa cells preincubated for 2 hrs followed by H2DCFDA probe exposure for 30 mins and subsequent removal of probe with photo-irradiation at 16 J/cm2 by confocal scanning microscopic analysis. The conditions noted are these: dose <= 200.0 nM, time 2.5 hrs. It is filed as functional, cell-based.
Series [19] has as its system HeLa. The series can be described thus: Induction of ROS production in human HeLa cells upto 200 nM preincubated for 2 hrs followed by H2DCFDA probe exposure for 30 mins and subsequent removal of probe by confocal scanning microscopic analysis. The class given is functional, cell-based. The conditions noted are these: time 2.5 hrs.
The nature of series [20]: Drug uptake in human HeLa cells at 5 uM incubated for 3 hrs by confocal scanning microscopy. The class given is ADME, cell-based.
Series [21] is described as follows: Drug localization in lysosome of human HeLa cells at 5 uM incubated for 30 mins by Lyso-tracker Green DND-26 dye based confocal scanning microscopic analysis. The settings on record: 0.5 h. The class given is ADME, subcellular.
A short description of series [22]: Drug localization in mitochondria of human HeLa cells at 5 uM incubated for 30 mins by MitoTracker Green FM dye based confocal scanning microscopic analysis. The conditions noted are these: 0.5 h. The class given is ADME.
Series [23] in a line: Drug localization in endoplasmic reticulum of human HeLa cells at 5 uM incubated for 30 mins by ER-Tracker Green dye based confocal scanning microscopic analysis. It is filed as ADME. The conditions noted are these: 0.5 h.
The subject of series [24] is HeLa. In words: Induction of ROS production in human HeLa cells upto 200 nM preincubated for 2 hrs followed by H2DCFDA probe exposure for 30 mins and subsequent removal of probe with photo-irradiation at 16 J/cm2 by confocal scanning microscopic analysis. The class given is functional, cell-based. The settings on record: time 2.5 hrs.
For series [25], the system named is HeLa. In words: Antitumor activity against human HeLa cells xenografted in Balb/C nu/nu mouse assessed as reduction in tumor histology at 2.5 umol/kg, iv with photo-irradiation at 30 J/cm2 after 1 hr of compound administration measured after 24 days by H and E staining based analysis. The conditions noted are these: dose 2.5 µmol/kg, time 24.0 day. The class given is functional, organism-based.

For series [26], the system named is HeLa. The series can be described thus: Antitumor activity against human HeLa cells xenografted in Balb/C nu/nu mouse assessed as tumor growth inhibition at 2.5 umol/kg, iv with photo-irradiation at 30 J/cm2 after 1 hr of compound administration measured for 6 days. It is filed as functional, organism-based. The settings on record: dose 2.5 µmol/kg, time 6.0 day.

Active and inactive are the calls of the source. The rule behind the calls is not given here. A value given as a limit tells only on which side of the number the result lay.

For the compound `C=Cc1c(C)c2cc3nc(c(CC(=O)O)c4[nH]c(cc5nc(cc1[nH]2)C(C)=C5CC)c(C)c4C(=O)O)[C@@H](CCC(=O)O)[C@@H]3C` [CHLORIN E6], the IC50 at 27 h in [1], in [12], in series [14] and in [15] was above 50000 nM in each case. The Activity result in [2], in series [3], in series [4], in [6], in [8] and in series [13] was “Non-Toxic” throughout. Besides, in series [16], the Activity entry is on record as “Non-Toxic”. Moreover, the IC50 in [5] is 799 nM; in [7], 2300 nM; in series [9], 599 nM; in [11], 955 nM. Besides, the result in [10] was inactive.
As for `COc1ccc2c(c1)CCc1c(-c3ccccc3)c3n(c1-2)[B-](F)(F)[N+]1=C(c2ccc(OCC(=O)NCCCNC(=O)c4c(F)c(F)c(F)c(F)c4F)cc2)C(I)=C(c2ccccc2)C1=N3`, the IC50 at 27 h in [1], in series [12], in [14] and in [15] was above 50000 nM in each case. Also, the IC50 in [5] came to 55.8 nM; in series [7] it was 74.8 nM; in [9], 41.2 nM; in [11], 38.2 nM. Moreover, the Drug uptake entry in series [17] is reported as “Tde”.
As to `Br.COc1ccc2c(c1)CCc1c(-c3ccccc3)c3n(c1-2)[B-](F)(F)[N+]1=C(c2ccc(OCC(=O)NCCC[P+](c4ccccc4)(c4ccccc4)c4ccccc4)cc2)C(I)=C(c2ccccc2)C1=N3`, the IC50 at 27 h was determined as 44400 nM in [1], 20100 nM in series [12], 21300 nM in [14] and 25800 nM in series [15]. Further, in [18], the Activity entry was “Dose-Dependent Effect”. Besides, in series [19], the result was inactive. For the same compound, the IC50 in series [5] is 12.2 nM; in series [7], 33.7 nM; in series [9] it was 14.3 nM; in [11], 5.5 nM. For the same compound, the Drug uptake entry is given as “Active” in series [20]; “Tde” in series [17]; “Not Active” in [21]; “Active” in [22]; “Not Active” in series [23]. The outcome in series [24] was Active.
For `COc1ccc(C2=[N+]3C(=Nc4c(-c5ccccc5)c5c(n4[B-]3(F)F)-c3ccc(OC)cc3CC5)C(c3ccccc3)=C2I)cc1`, the IC50 at 27 h in series [1], in series [12], in series [14] and in series [15] was above 50000 nM throughout. For the same compound, the Activity result in series [2] is “Non-Toxic”; in series [3] it was “Non-Toxic”; in series [4], “Non-Toxic”; in series [18], “Dose-Dependent Effect”; in [6], “Non-Toxic”; in series [8] it was “Non-Toxic”. Besides, the Activity result in [13] and in [16] was “Non-Toxic” in each case. In addition, the result in [19] was inactive. The IC50 in series [5] turned out to be 88.8 nM; in [7], 317 nM; in series [9], 85.6 nM; in series [11] it was 62.8 nM. Further, the outcome in series [25] and in series [26] was Active. For the same compound, the Drug uptake result in series [17] was “Tde”.
On to `COc1ccc2c(c1)CCc1c(-c3ccccc3)c3n(c1-2)[B-](F)(F)[N+]1=C(c2ccc(OCc4cn(CCCNC(=O)c5c(F)c(F)c(F)c(F)c5F)nn4)cc2)C(I)=C(c2ccccc2)C1=N3`, for which the IC50 at 27 h in series [1], in [12], in series [14] and in series [15] was above 50000 nM throughout. The IC50 amounted to 219 nM in series [5], 413 nM in series [7], 179 nM in [9] and 92 nM in series [11]. For the same compound, in [17], the Drug uptake entry is “Tde”.
`COc1ccc2c(c1)CCc1c(-c3ccccc3)c3n(c1-2)[B-](F)(F)[N+]1=C(c2ccc(OCc4cn(CCCN5CCOCC5)nn4)cc2)C(I)=C(c2ccccc2)C1=N3`: the IC50 at 27 h was above 50000 nM in series [1], above 50000 nM in [12], 25400 nM in series [14] and above 50000 nM in [15]. Besides, the concentration for half-maximal inhibition (IC50) in [5] was determined as 11.3 nM; in series [7], 10.4 nM; in series [9] it was 9.1 nM; in series [11] it was 4.8 nM. In series [17], the Drug uptake result is “Tde”.
Consider `Br.COc1ccc2c(c1)CCc1c(-c3ccccc3)c3n(c1-2)[B-](F)(F)[N+]1=C(c2ccc(OCc4cn(CCC[P+](c5ccccc5)(c5ccccc5)c5ccccc5)nn4)cc2)C(I)=C(c2ccccc2)C1=N3`, for which the IC50 at 27 h came to 12800 nM in series [1], 12500 nM in [12], 10600 nM in series [14] and 11400 nM in [15]. For the same compound, the IC50 in series [5] is 13.7 nM; in [7], 21 nM; in [9], 14.3 nM; in [11], 2 nM. Also, in series [17], the Drug uptake entry is given as “Tde”.
